The values below come from patent publication US4581359A, “Pharmacological treatments with N-7-substituted derivatives of theophylline” (priority 1984, dated 1986).

Values joined by “and” are separate entries in the source; they are usually repeats but may differ in a detail not shown here. Equal entries are not always repeated. Where two headings read alike, the source gives them in different places.

Data set [1] in a line: Dyphylline intravenous infusion in rabbits: blood concentration, pharmacokinetics, toxicity (Example 1). Format: in vivo, female New Zealand White rabbits. An excerpt: A high-pressure liquid chromatographic (HPLC) system consisted of a delivery pump (M-6000A, Waters Associates, Milford, Mass.), sample injection apparatus (Model U6K, Waters Associates, Milford, Mass.), 30-cm reverse phase column (μBondapak C18, Waters Associates, Milford, Mass.), UV detector (Model 440, Waters Associates, Milford, Mass.) with wavelength of 280 nm and a dual pen recorder (Soltec Co., Encino, Calif.) which were used at ambient temperature.
Both dyphylline and theophylline stock standard solutions were prepared to contain 10, 40, 80, 120, 150, 320 or 640 mg of each in 50 ml of distilled water. 20 μl of each was then added into 0.38 ml of rabbit blood to prepare working blood standard solutions.
The internal standard used was β-hydroxypropyl theophylline (Aldrich Chemical Co., Inc., Milwaukee, Wis.) in acetonitrile which was prepared in a 500 ml volumetric flask as a stock solution, and kept tightly sealed except during use throughout the experiment. Internal standard solution (0.4 ml) was added to an equal volume (0.4 ml) of sample to precipitate protein. After centrifuging for 10 minutes, the supernatant was injected into the HPLC. The HPLC operating conditions included a mobile phase composed of acetonitrile (6 percent V/V) in distilled water and a flow rate of 2.0 ml/min.
Typical log blood dyphylline concentration versus time plots, for each of the three rabbits following zero-order infusion of 250 mg over fifteen minutes are presented in FIG. 1. […] (1975). Parameters obtained from linear least square fitting of the terminal data to a one-compartment model appear in Table I. The fitted line of the data can be seen in FIG. 1.

The next data set can be described thus: in vivo. As to conditions: rabbit. The method, then: All experiments of this example were performed using female New Zealand White rabbits. These rabbits (2.4-3.6 kg) were housed in a controlled environment and allowed free access to water and food.
Before dosing with drug the rabbit ear hair was clipped and treated with hair remover lotion (sold under the trademark NAIR, Carter-Wallace, Inc., New York, N.Y.), a catheter (Quick-Cath, 20 Ga, Travenol Laboratories, Inc., Deerfield, Ill.) and sterile intermittent infusion plug were then inserted in the rabbit's ear vein for infusion. […] For each separate administration of theophylline, a suitable amount of aminophylline (40 mg/kg) was dissolved in distilled water to make 10 ml injectable solution which was administered into a rabbit's ear vein as a continuous infusion over a period of 15 minutes.
Blood samples were collected from an ear vein (in the opposite ear from the infusion) at predetermined time intervals. Before collecting each sample, the rabbit ear was treated topically with xylene to dilate the ear vein for convenient sample collection. Immediately after each blood sample was drawn, 0.4 ml of blood was transfered to the centrifuge tube and 0.4 ml of acetronitrile with appropriate internal standard was added to precipitate the protein and extract drug components. After vortexing well, the blood acetonitrile mixture was centrifuged at 3000×G for ten minutes, and 10 μl of supernatent solution was then injected into the HPLC.
The post infusion data of theophylline were fitted to a two-compartment open model using the same procedure as described above. Although samples were collected while infusion of dyphylline was continuing, only post infusion data were used for dyphylline pharmacokinetic analysis.

The conditions of data set [2]: cited from earlier work.
Data set [3] in a line: Literature: pharmacokinetics of dyphylline and related derivatives in humans. As to conditions: human, in vivo; for Vd/F: po, analysis of Gisclon oral data.
The mark [4] stands for this setting: rabbit, blood, iv, 250 mg, 250.0 mg/rabbit over 15 minutes, alone, rabbits 1-3, mean.

On to `Cn1c(=O)c2c(ncn2CC(O)CO)n(C)c1=O` (centres unmarked) [dyphylline, dihydroxypropyl theophylline], for which, in data set [1] (250.0 mg/rabbit zero-order infusion over 15 minutes, alone, rabbits 1-3, mean, 15 min), the “Ccut, blood concentration at the time the infusion was stopped” value was 81.82 µg/mL and 112.5 µg/mL and 91.70 µg/mL. Moreover, the signs of toxicity result in data set [1] (blood concentrations about 80 to 112 mcg/ml) is “did not exhibit any signs of toxicity”. This compound also showed a half-life in data set [1] (setting [4]) of 35.6 min. The k el in data set [1] (setting [4]) is 0.000325 s⁻¹. Further, the Vd in data set [1] (rabbit, blood, iv, 250 mg, 250.0 mg/rabbit over 15 minutes, alone, rabbits 1-3, mean, read-out: Vd1) is 0.895 L/kg; in data set [1] (rabbit, blood, iv, 250 mg, Table I, read-out: average apparent volume of distribution of dyphylline administered alone), 0.82 L/kg; in the data set “in vivo” (iv, 666.7 mg/kg, average apparent volume of distribution of dyphylline administered with theophylline), 0.41 L/kg; in data set [3] (from Simons et al., read-out: Vd, range over dosage forms) it was 0.58 to 0.98 L/kg. Moreover, the concentration at 0.25 h is 80.8 µg/mL in data set [1] (rabbit, blood, iv, 250 mg, 250.0 mg/rabbit zero-order infusion over 15 minutes, alone, rabbits 1-3, mean, read-out: Ccut, blood concentration at the time the infusion was stopped) and 80 to 112 µg/mL in data set [1] (rabbit, blood, iv, 250 mg, 15 minutes, three rabbits, read-out: blood concentration when the infusion was stopped). The “effect of dyphylline on half-life of theophylline” value in the data set “in vivo” is “does not appear to alter the half-life of theophylline”. Besides, in “in vivo”, the “plasma concentration of dyphylline not toxic in the presence of about 100 mcg/ml theophylline” value is “about 600 mcg/ml”. In data set [2] (Joos et al.), the “time post dosing to achieve plasma concentrations” value is 90 min. For the same compound, the “plasma concentration of dyphylline” value in data set [2] (combined with theophylline and proxyphylline (Bracher; Werdermann)) was “less than 3.0 mcg/ml”. In data set [2] (dyphylline and proxyphylline (Joos et al.), 90 min), the “plasma concentration, each drug” value is on record as “about 13 mcg/ml”. The Vd/F in data set [3] (77.0 kg, complete bioavailability, read-out: central compartment volume) is ~52 L; in data set [3] (77.0 kg, complete bioavailability, read-out: total volume of distribution), ~67 L; in data set [3] (84 percent bioavailability, read-out: Vc), ~0.6 L/kg; in data set [3] (84 percent bioavailability, read-out: Vd), ~0.73 L/kg; in data set [3] (bioavailability 84 percent, read-out: central compartment volume) it was ~44 L; in data set [3] (bioavailability 84 percent, read-out: total volume of distribution), ~56 L. For the same compound, the Vd/F in data set [3] (total bioavailability, read-out: Vc) was ~0.68 L/kg; in data set [3] (total bioavailability, read-out: Vd total), ~0.87 L/kg.
